Measured values from ChEMBL document CHEMBL1137925, “SAR development of a selective 5-HT1D antagonist/serotonin reuptake inhibitor lead using rapid parallel synthesis” (Bioorg Med Chem Lett, 2004).

Legend:
[1] = molecular target: 5-hydroxytryptamine receptor 1B (Homo sapiens, UniProt P28222); assay: Binding affinity towards human 5-hydroxytryptamine 1B receptor in L-M(tk-) cells using [3H]GR-125743 as radioligand; format: cell-based
[2] = molecular target: 5-hydroxytryptamine receptor 1D (Homo sapiens, UniProt P28221); assay: Binding affinity towards human 5-hydroxytryptamine 1D receptor in L-M(tk-) cells using [3H]GR-125743 as radioligand; format: cell-based
[3] = molecular target: T1, Adrenergic receptor alpha-1 (Rattus norvegicus, UniProt P15823+P23944+P43140); assay: Binding affinity determined against alpha-1 adrenergic receptor in rat cortex membranes using [3H]prazosin as radioligand; format: cell membranes
T1 sequence (P15823 whole entry): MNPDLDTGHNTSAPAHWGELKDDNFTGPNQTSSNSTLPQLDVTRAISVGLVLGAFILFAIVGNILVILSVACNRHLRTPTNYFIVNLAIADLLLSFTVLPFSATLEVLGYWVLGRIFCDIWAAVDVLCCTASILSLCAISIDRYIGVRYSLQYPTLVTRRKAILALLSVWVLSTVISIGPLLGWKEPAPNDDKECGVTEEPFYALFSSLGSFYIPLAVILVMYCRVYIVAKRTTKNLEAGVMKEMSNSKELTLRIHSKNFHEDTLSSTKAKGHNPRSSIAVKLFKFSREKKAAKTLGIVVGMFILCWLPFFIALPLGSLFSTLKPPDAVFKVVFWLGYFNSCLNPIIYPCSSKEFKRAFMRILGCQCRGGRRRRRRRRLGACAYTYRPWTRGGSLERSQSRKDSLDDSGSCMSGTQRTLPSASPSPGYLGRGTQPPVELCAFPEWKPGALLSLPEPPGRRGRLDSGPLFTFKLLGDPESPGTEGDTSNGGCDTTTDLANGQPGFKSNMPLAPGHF
T1 sequence (P23944 whole entry): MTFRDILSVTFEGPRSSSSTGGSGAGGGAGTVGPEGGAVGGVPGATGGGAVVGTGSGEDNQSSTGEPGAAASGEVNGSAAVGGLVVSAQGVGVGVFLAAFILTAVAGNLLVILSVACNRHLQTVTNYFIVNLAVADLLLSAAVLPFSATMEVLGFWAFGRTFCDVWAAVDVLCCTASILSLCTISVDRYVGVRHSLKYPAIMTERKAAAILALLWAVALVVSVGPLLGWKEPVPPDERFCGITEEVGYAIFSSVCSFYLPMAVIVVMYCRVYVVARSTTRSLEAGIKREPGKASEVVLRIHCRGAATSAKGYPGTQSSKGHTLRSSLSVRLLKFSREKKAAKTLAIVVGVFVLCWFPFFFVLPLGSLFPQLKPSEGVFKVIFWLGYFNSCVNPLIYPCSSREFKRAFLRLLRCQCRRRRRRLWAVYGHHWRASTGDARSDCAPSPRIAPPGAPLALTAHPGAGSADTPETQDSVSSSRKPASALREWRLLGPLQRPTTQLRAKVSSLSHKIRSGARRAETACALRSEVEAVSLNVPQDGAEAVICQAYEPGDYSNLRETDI
T1 sequence (P43140 whole entry): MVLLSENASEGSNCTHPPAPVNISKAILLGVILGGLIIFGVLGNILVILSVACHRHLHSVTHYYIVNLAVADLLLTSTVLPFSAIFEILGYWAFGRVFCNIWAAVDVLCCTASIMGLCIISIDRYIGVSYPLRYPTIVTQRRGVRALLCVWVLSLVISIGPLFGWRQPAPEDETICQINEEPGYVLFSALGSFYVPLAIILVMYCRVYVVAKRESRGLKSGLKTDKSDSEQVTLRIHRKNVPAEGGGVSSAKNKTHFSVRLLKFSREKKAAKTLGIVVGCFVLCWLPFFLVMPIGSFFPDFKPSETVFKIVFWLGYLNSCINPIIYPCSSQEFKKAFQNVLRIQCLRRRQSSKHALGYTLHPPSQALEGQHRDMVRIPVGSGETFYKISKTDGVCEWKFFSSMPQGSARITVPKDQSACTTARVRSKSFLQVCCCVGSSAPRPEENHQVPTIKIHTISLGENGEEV

D(2) dopamine receptor = D(2) dopamine receptor (Rattus norvegicus, UniProt P61169); assay: Binding affinity determined against dopamine receptor D2 in rat caudate membranes using [3H]- raclopride as radioligand; format: cell membranes
[4] = molecular target: Sodium-dependent serotonin transporter (Rattus norvegicus, UniProt P31652); assay: In vitro binding affinity towards serotonin transporter using [3H]citalopram as radioligand in rat cerebral cortex membranes; format: cell membranes, Membrane
Cavia porcellus = organism: Cavia porcellus; assay: Ability at 30 uM to potentiate potassium-stimulated [3H]5-HT release from preloaded guinea pig cortical slices; format: functional

5-hydroxytryptamine receptor 1D, sequence (P28221 whole entry): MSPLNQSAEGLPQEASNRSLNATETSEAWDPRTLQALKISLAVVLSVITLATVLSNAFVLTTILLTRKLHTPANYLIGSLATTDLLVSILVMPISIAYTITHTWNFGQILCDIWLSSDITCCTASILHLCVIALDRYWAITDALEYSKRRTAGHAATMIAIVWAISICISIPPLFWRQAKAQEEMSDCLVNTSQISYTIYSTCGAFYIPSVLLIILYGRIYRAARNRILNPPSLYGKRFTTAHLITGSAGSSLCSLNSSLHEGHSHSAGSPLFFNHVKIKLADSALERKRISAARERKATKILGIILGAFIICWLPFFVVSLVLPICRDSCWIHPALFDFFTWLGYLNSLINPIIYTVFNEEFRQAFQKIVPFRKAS
D(2) dopamine receptor, sequence (P61169 whole entry): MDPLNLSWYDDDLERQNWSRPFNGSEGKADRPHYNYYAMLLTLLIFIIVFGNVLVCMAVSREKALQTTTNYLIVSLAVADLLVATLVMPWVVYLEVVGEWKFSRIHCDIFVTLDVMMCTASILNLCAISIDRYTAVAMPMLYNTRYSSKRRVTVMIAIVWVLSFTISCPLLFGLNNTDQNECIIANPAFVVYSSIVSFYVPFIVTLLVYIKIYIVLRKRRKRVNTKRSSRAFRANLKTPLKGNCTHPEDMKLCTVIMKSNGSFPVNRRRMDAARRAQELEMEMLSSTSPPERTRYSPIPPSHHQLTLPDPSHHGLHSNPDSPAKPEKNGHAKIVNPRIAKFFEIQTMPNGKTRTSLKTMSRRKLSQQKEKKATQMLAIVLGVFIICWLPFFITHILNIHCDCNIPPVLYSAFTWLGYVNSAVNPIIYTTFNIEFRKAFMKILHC
Sodium-dependent serotonin transporter, sequence (P31652 whole entry): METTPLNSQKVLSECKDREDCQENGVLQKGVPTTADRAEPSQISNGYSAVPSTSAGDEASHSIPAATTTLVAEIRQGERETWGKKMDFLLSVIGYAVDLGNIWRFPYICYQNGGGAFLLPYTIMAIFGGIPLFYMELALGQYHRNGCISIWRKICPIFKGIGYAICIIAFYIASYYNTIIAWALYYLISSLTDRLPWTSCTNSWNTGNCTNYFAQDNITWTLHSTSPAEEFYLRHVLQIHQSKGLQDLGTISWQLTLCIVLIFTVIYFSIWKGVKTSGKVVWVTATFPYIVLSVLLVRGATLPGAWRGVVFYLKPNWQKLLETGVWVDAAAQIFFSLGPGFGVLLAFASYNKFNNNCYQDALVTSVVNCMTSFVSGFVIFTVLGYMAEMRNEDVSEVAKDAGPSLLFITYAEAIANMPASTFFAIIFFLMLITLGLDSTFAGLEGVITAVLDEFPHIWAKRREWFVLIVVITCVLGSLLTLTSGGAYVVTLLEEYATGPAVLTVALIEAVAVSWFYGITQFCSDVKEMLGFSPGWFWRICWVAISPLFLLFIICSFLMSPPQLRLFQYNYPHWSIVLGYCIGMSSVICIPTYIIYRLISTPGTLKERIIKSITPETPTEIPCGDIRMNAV
5-hydroxytryptamine receptor 1B, sequence (P28222 whole entry): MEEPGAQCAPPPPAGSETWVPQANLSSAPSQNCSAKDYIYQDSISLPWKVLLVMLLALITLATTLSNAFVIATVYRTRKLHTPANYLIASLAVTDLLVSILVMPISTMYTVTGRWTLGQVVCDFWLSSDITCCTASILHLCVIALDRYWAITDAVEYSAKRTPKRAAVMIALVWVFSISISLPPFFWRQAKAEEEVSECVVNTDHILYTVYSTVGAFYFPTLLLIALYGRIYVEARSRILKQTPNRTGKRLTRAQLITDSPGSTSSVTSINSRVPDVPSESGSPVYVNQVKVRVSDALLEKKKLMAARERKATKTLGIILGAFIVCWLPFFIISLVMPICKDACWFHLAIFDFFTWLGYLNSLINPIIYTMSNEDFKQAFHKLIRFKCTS

SMILES | Ki [1] [nM] | Ki [2] [nM] | Ki [3] [nM] | Ki (D(2) dopamine receptor) [nM] | Ki [4] [nM] | Release (Cavia porcellus) [%]
NC(=O)c1ccc2c(c1)CCO[C@@H]2CCN1CC=C(c2c[nH]c3c(F)cccc23)CC1 | 199 | 25 | 1.7 | 48 | 0.2 | –
NC(=O)c1ccc2c(c1)CCO[C@H]2CCN1CC=C(c2c[nH]c3c(F)cccc23)CC1 | 387 | 15 | 2.8 | 7 | 0.3 | –
NC(=O)c1ccc2c(c1)CCOC2CCN1CC=C(c2ccc(F)c3ccoc23)CC1 (configuration not stated) | – | 27 | 31 | 52 | 1.9 | –
NC(=O)c1ccc2c(c1)CCOC2CCN1CC=C(c2c[nH]c3cc(Cl)ccc23)CC1 (configuration not stated) | > 1000 | 145 | – | – | 0.38 | –
NC(=O)c1ccc2c(c1)CCOC2CCN1CC=C(c2ccc3cc(F)ccc3c2)CC1 (configuration not stated) | > 1000 | 71 | 36 | 491 | 2.2 | –
NC(=O)c1ccc2c(c1)CCOC2CCN1CCN(c2c[nH]c3cc(F)ccc23)CC1 (configuration not stated) | 310 | 74 | 5.8 | 7.1 | 19 | –
Cn1cc(C2=CCN(CCC3OCCc4cc(C(N)=O)ccc43)CC2)c2ccc(F)cc21 (configuration not stated) | > 1000 | 65 | 17 | 73 | 0.98 | –
N#Cc1cccc2c(C3=CCN(CCC4OCCc5cc(C(N)=O)ccc54)CC3)c[nH]c12 (configuration not stated) | > 1000 | 130 | 134 | 15 | 2.1 | –
C[C@H]1CC(c2c[nH]c3cc(F)ccc23)CCN1CCC1OCCc2cc(C(N)=O)ccc21 (some centres not stated) | > 1000 | 28 | 20 | 86 | 0.78 | –
NC(=O)c1ccc2c(c1)CCOC2CCN1CC=C(c2c[nH]c3cc(C(F)(F)F)ccc23)CC1 (configuration not stated) | > 1000 | 122 | 190 | 8.6 | 0.99 | –
NC(=O)c1ccc2c(c1)CCOC2CCN1CC=C(c2[nH]nc3cc(F)ccc23)CC1 (configuration not stated) | 210 | 24 | 2.1 | 33 | 0.5 | –
Cn1nc(C2=CCN(CCC3OCCc4cc(C(N)=O)ccc43)CC2)c2ccc(F)cc21 (configuration not stated) | > 1000 | 51 | 16 | 183 | 0.54 | –
NC(=O)c1ccc2c(c1)CCOC2CCN1CCC(c2nsc3cc(F)ccc23)CC1 (configuration not stated) | 200 | 40 | – | – | 53 | –
NC(=O)c1ccc2c(c1)CCOC2CCN1CC=C(c2c[nH]c3ccc(F)cc23)CC1 (configuration not stated) | > 1000 | 130 | 101 | 2.1 | 1.6 | –
NC(=O)c1ccc2c(c1)CCOC2CCN1CCC(c2c[nH]c3cc(F)ccc23)CC1 (configuration not stated) | 131 | 8.4 | 12 | 19 | 2 | –
NC(=O)c1ccc2c(c1)CCOC2CCN1CCC(c2cccc3ccccc23)CC1 (configuration not stated) | 73 | 14 | 30 | 50 | 15 | 52
NC(=O)c1ccc2c(c1)CCOC2CCN1CCC(c2c[nH]c3cc(F)ccc23)C1 (configuration not stated) | 96 | 40 | 1.2 | 28 | 2.1 | –
NC(=O)c1ccc2c(c1)CCOC2CCN1CC=C(c2noc3cc(F)ccc23)CC1 (configuration not stated) | 155 | 63 | 3 | 37 | 8 | –
NC(=O)c1ccc2c(c1)CCOC2CCN1CC=C(c2cccc3ccccc23)CC1 (configuration not stated) | 153 | 5.4 | 224 | 167 | 3.2 | 11
NC(=O)c1ccc2c(c1)CCOC2CCN1CC=C(c2csc3cc(F)ccc23)CC1 (configuration not stated) | 186 | 20 | 17 | 3.8 | 1 | –
NC(=O)c1ccc2c(c1)CCOC2CCN1CC=C(c2coc3cc(F)ccc23)CC1 (configuration not stated) | 155 | 28 | 2.8 | 21 | 0.29 | –
NC(=O)c1ccc2c(c1)CCOC2CCN1CC=C(c2c[nH]c3c(F)c(F)ccc23)CC1 (configuration not stated) | > 1000 | 57 | 16 | 6.7 | 0.3 | –
NC(=O)c1ccc2c(c1)CCOC2CCN1CC=C(c2c[nH]c3c(F)cccc23)CC1 (configuration not stated) | > 1000 | 26 | 26 | 3.8 | 0.76 | –
NC(=O)c1ccc2c(c1)CCOC2CCN1CC=C(c2c[nH]c3cc(F)ccc23)CC1 (configuration not stated) | 281 | 56 | 16 | 4.7 | 0.11 | 36
NC(=O)c1ccc2c(c1)CCOC2CCN1CC=C(c2cccc3ccc(F)cc23)CC1 (configuration not stated) | 210 | 26 | 202 | 87 | 13 | –
COc1ccc2[nH]cc(C3=CCN(CCC4OCCc5cc(C(N)=O)ccc54)CC3)c2c1 (configuration not stated) | 316 | 31 | 75 | 26 | 3.5 | 42
NC(=O)c1ccc2c(c1)CCOC2CCN1CC=C(c2c[nH]c3c(Cl)c(Cl)ccc23)CC1 (configuration not stated) | > 1000 | 165 | – | – | 0.28 | –
